The text below walks through data of article PMC11568214, “The impact of 9-azaglycophymine and phenylguanidine derivatives on the proliferation of various breast cancer cell lines in vitro and in vivo” (Scientific Reports, 2024).

Bounds are passed on as bounds.

In series [1] the test system is 4T1. Put plainly: Crystal violet (CV) cell viability assay, IC50 determination. Type of series: cell-based. Particulars: Mus musculus, 72 h treatment, mean ± SD. As for the experimental part: (§1) For initial testing of the cytotoxic effect of the available glycophymine compounds (Table S2), cells were treated with compound in three concentrations: 1, 10 and 50 µM. Cells were seeded in 96-well plates and allowed to adhere overnight. Then they were treated for 72 h under standard culture conditions. […] For IC50 determination, the compounds were tested at seven concentrations (0.78, 1.56, 3.13, 6.25, 12.5, 25 and 50 µM). Subsequently, the cell viability was determined by using the crystal violet (CV) assay. Moreover, the selected compounds were tested against the mouse breast cancer cell line 4T1 (TNBC) as well. The compounds were prepared initially to obtain a stock solution of 20 mM in DMSO. Later, the working solutions were prepared by mixing the required amount of DMSO stock with the optimal medium for each cell line. The DMSO concentration in the final solution was always maintained lower than 0.5% to avoid any DMSO-derived side effects.
(§2) For CV assays, after 72 h treatment, the treatment medium was discarded from the 96-well plates, and the cells were washed using 50 µL of PBS. Cells were fixed by adding 50 µL of 4% (v/v) paraformaldehyde (PFA) in PBS for 15 min at room temperature (RT). Afterwards, PFA was discarded, and the plates were dried for 15 min at RT. 50 µL of CV working solution (0.1% w/v CV in PBS) were added to the wells, followed by 15 min incubation at RT. Subsequently, the CV solution was discarded, and the plates were washed using aqua bidest. (ddH2O) to remove any remaining CV solution. The plates were left to dry overnight at RT, and then 50 µL of 33% (v/v) acetic acid in ddH2O were added to each well. Finally, the absorbance was measured at 570 nm by using a SpectraMax M5 plate reader (Molecular Devices, California, USA) and at 670 nm as background wavelength. […] Additionally, gefitinib, an approved EGFR inhibitor of the quinazoline family, was tested as anti-proliferative positive control. The data represent the mean ± standard deviation derived from three independent biological replicates. Dose–response curves were generated by four-parametric non-linear regression analysis using the GraphPad Prism software (version: 10.1, San Diego, CA, USA). Based on that, IC50 values and standard deviations were calculated for each replicate individually.

For series [2], the system named is BT-474. The description is as above. It is filed as cell-based. Particulars: Homo sapiens, 72 h treatment, mean ± SD. As for the experimental part:
as §1, §2

In series [3] the test system is HCC1937. Described as above. Type of series: cell-based. The following applies: Homo sapiens, 72 h treatment, mean ± SD. The method, then:
as §1, §2

The test system of series [4] is MCF-7. Described as above. It is filed as cell-based. Particulars: Homo sapiens, MCF7, 72 h treatment, mean ± SD. The method, then: as §1, §2
Series [5] concerns MDA-MB-468. The description is as above. The following applies: Homo sapiens, MDA-MB-468, 72 h treatment, mean ± SD. It is filed as cell-based, human. The method, then:
as §1, §2

Series [6] relates to MCF-7, MDA-MB-468, BT-474 and HCC1937 breast cancer cells. Put plainly: Fast screening / CV cell viability, breast cancer cell line panel. It is filed as cell-based, human. Particulars: for concentration below which active in cytotoxicity screening / reduction of cell viability: initial screening; for anti-proliferative / cytotoxic effect: screening at 1, 10 and 50 µM; for IC50: Homo sapiens, read-out: IC50 values (National Cancer Institute guideline criterion); for reduction of cell viability: after 72 h of treatment. Further details: reduction of cell viability: concentration or dose not given beside the values. As for the experimental part:
as §1, §2

For series [7], the system named is HepG2 cell line. On the set-up: method as in PMID 34237623. Particulars: read-out: IC50 against the HepG2 cell line; cited from earlier work.

Turning to `O=c1[nH]c(Nc2ccccc2)nc2cc([N+](=O)[O-])ccc12` [Compound 46], the IC50 in series [1] is 7.9 ± 0.6 µM; in series [2] it was 4.4 ± 0.1 µM; in series [3], 3.9 ± 0.2 µM; in series [4], 5.7 ± 0.6 µM; in series [5], 6.9 ± 0.2 µM; in series [6] (72 h) it was < 30 µg/mL. Moreover, the “concentration below which active in cytotoxicity screening” value (“concentration below which active” below) in series [6] (72 h) was “below 10 µM”. Besides, the “anti-proliferative / cytotoxic effect” value in series [6] (72 h) is given as “significantly reduced cell proliferation”. Besides, the “reduction of cell viability” value in series [6] was ≥ 50%.
On to `O=c1[nH]c(Nc2ccccc2)nc2ccc([N+](=O)[O-])cc12` [Compound 47], for which the half-inhibitory concentration (IC50) was 12.6 ± 1.2 µM in series [1]; 4.5 ± 0.2 µM in series [2]; 4.4 ± 0.3 µM in series [3]; 6.3 ± 0.4 µM in series [4]; 8 ± 0.3 µM in series [5]; < 30 µg/mL in series [6] (72 h). In addition, in series [6] (72 h), the “concentration below which active” value was “below 10 µM”. In addition, the “anti-proliferative / cytotoxic effect” value in series [6] (72 h) is reported as “significantly reduced cell proliferation”. For the same molecule, in series [6], the “reduction of cell viability” value was ≥ 50%.
Take `O=c1[nH]c(Nc2ccc(Cl)cc2)nc2ccccc12` [Compound 22]: the concentration for half-maximal inhibition (IC50) is 23.5 ± 7.2 µM in series [1]; 9.9 ± 1.5 µM in series [2]; 14.8 ± 3.7 µM in series [3]; 10 ± 0.5 µM in series [4]; 13 ± 0.4 µM in series [5]; < 30 µg/mL in series [6] (72 h). The “cytotoxicity relative to compound 19” value in series [6] (72 h, CV assay) is “twofold less”. In addition, the “concentration below which active” value in series [6] (72 h) is given as “below 10 µM”. For the same molecule, in series [6] (72 h), the “anti-proliferative / cytotoxic effect” value is recorded as “significantly reduced cell proliferation”. For the same molecule, the “reduction of cell viability” value in series [6] is ≥ 50%.
In the case of `Nc1ccc2c(=O)[nH]c(Nc3ccccc3)nc2c1` [Compound 48], the “anti-proliferative / cytotoxic effect” value in series [6] (72 h) was “completely lack cytotoxic activity”.
Turning to `COc1cc(C(=O)c2nc3ccccc3c(=O)[nH]2)cc(OC)c1OC` [2-(3,4,5-trimethoxybenzoyl)quinazolin-4(3H)-one], the IC50 in series [7] was 1.22 ± 0.12 µM.
For `Nc1ccc2nc(Nc3ccccc3)[nH]c(=O)c2c1` [Compound 49], in series [6] (72 h), the “anti-proliferative / cytotoxic effect” value is reported as “completely lack cytotoxic activity”.
As for `O=c1[nH]c(Nc2ccccc2)nc2ccccc12` [Compound 15, 2-(phenylamino)quinazolin-4(1H)-one], the “anti-proliferative / cytotoxic effect” value in series [6] (72 h) was “did not show any cytotoxic effect”.
Regarding `O=c1[nH]c(Nc2ccc(Cc3ccc([N+](=O)[O-])cc3[N+](=O)[O-])cc2)nc2ccccc12` [Compound 24], the concentration for half-maximal inhibition (IC50) in series [1] is 11.3 ± 3.5 µM; in series [2], 9.7 ± 1.3 µM; in series [3] it was 11 ± 1.9 µM; in series [4], 10.3 ± 1.3 µM; in series [5], 11.2 ± 1.8 µM; in series [6] (72 h), < 30 µg/mL. Further, in series [6] (72 h), the “concentration below which active” value is “below 10 µM”. The “anti-proliferative / cytotoxic effect” value in series [6] (72 h) is “significantly reduced cell proliferation”. Besides, the “reduction of cell viability” value in series [6] is listed as ≥ 50%.

A word on the IC50: it is the concentration needed to halve the response being measured.
